Assay results published in patent publication US11174254B2, “Aniline-substituted 1,2-dihydropyrrol[3,4-C]pyridin/pyrimidin-3-one derivative and use thereof” (SHANGHAI HAIYAN PHARMACEUTICAL TECHNOLOGY CO., LTD., priority 2017, dated 2021).

Legend:
BTK WT = BTK WT (Homo sapiens (Human), UniProt Q06187); assay: Lantha Screening Kinase Reaction Assay; type: biochemical; details: for IC50: TR-FRET LanthaScreen, kinase Invitrogen PV3363, 60 min at 25° C.; for inhibitory activity against enzyme (BTK WT), in words: comment on table 1, G-12 and G-17 compared with G-2
Protocol: The compound was predissolved in 100% DMSO.10 mM drug stock solution was obtained by dissolution at room temperature and then gradiently diluted with 8 vol % DMSO solution to a final concentration of 10-0.005 μM. 2.5 μl of a solution of substance to be tested and 2.5 μl of kinase (Invitrogen PV3363) diluted with the reaction buffer were added into each well of 384-well plate (Corning 3676), and then the mixture of Fluososcei-PolyGT (Invitrogen PV3610) substrate and ATP (Invitrogen PV3227) diluted with 5 μl of the reaction buffer were added to initiate the reaction. Among the wells, the kinase in the blank well was replaced with a reaction buffer and the kinase well (Enzyme) was not added with any drug. […] The plates were read on a VictorX5 fluorescent plate reader (PerkinElmer) and the light absorption at an excitation wavelength of 340 nm and emission wavelengths of 500 nm and 520 nm was measured.
2. The half-inhibitory concentration IC50 was calculated by fitting with XLFIT 5.0 software (IDBS, UK).

wild-type EGFR kinase = wild-type EGFR kinase (Homo sapiens (Human), UniProt P00533); assay: Wild type EGFR kinase inhibition test (z-lyte); type: biochemical; details: wild-type EGFR kinase Invitrogen PV3872, Tyr04 substrate, read-out: EGFR WT IC50
Description: All the following reagents used in z-lyte test are commercially available from Invitrogen.
The calculation method for the inhibition ratio (referring to the instruction of PV3363, Invitrogen) was as follows: ER=Coumarin Emission (450 nm)/Fluorescein Emission (520 nm) 1. Phosphorylation ratio=(1−((ER×C3520 nm−C3450 nm)/((C1450 nm−C3450 nm)+ER×(C3520 nm−C1520 nm))))×100% 2. Inhibition ratio (IR)=(1-phosphorylation ratio of the test compound)/(phosphorylation ratio of C2))×100% 3.
The half-inhibitory concentration IC50 was calculated by fitting with XLFIT 5.0 software (IDBS, UK).

βBTK Y223 (Ramos cells) = βBTK Y223 (Ramos cells) (Homo sapiens (Human), UniProt Q06187); assay: HTRF method for detecting intracellular βBTK Y223 phosphorylation; type: cell-based; details: 1 hour compound incubation, sodium pervanadate stimulation
Protocol: The compound was predissolved in 100% DMSO. 10 mM drug stock solution was obtained by dissolution at room temperature and then gradiently diluted with 5 vol % DMSO solution to a final concentration of 3-0.0014 μM. Ramos cells were seeded into a 96-well plate at a density of 4×10^5/well with 45 μl of 1640 medium containing 10% (V/V) FBS per well, and 5 μl of diluted solution of substance to be tested was added to each well. Incubation was performed for 1 hour at 37° C., 5% (V/V) CO2. 10 μl of sodium pervanadate dilution (diluted with 1640 without serum) was added, and 10 μl of serum-free medium was added to the negative control wells. Incubation was performed at 25° C. for 30 minutes on a shaker. 20 μl of lysate (4× lysate: blocked mother liquor is equal to 25:1) was added to each well and incubated for 30 minutes at 25° C. on a shaker. The 96-well plate was shaken on an oscillator at 800 rpm for 1 minute. 16 μl of cell lysate was added to a 384-well plate (Greiner 784075), and 4 μl of pre-mixed antibody solution (Phospho-BTK d2 antibody and Phospho-BTK Cryptate antibody diluted 20-fold with the test solution) was added. Incubation was performed at 25° C. overnight on a shaker. The plate was read on a VictorX5 fluorescent plate reader (PerkinElmer) and the light absorption at an excitation wavelength of 317 nm and emission wavelengths of 500 nm and 520 nm was measured (referring to the instruction of 63ADK017PEH, Cisbio). The half-inhibitory concentration IC50 was calculated by fitting with XLFIT 5.0 software (IDBS, UK).

Chain of wild-type EGFR kinase (P00533 25-1210): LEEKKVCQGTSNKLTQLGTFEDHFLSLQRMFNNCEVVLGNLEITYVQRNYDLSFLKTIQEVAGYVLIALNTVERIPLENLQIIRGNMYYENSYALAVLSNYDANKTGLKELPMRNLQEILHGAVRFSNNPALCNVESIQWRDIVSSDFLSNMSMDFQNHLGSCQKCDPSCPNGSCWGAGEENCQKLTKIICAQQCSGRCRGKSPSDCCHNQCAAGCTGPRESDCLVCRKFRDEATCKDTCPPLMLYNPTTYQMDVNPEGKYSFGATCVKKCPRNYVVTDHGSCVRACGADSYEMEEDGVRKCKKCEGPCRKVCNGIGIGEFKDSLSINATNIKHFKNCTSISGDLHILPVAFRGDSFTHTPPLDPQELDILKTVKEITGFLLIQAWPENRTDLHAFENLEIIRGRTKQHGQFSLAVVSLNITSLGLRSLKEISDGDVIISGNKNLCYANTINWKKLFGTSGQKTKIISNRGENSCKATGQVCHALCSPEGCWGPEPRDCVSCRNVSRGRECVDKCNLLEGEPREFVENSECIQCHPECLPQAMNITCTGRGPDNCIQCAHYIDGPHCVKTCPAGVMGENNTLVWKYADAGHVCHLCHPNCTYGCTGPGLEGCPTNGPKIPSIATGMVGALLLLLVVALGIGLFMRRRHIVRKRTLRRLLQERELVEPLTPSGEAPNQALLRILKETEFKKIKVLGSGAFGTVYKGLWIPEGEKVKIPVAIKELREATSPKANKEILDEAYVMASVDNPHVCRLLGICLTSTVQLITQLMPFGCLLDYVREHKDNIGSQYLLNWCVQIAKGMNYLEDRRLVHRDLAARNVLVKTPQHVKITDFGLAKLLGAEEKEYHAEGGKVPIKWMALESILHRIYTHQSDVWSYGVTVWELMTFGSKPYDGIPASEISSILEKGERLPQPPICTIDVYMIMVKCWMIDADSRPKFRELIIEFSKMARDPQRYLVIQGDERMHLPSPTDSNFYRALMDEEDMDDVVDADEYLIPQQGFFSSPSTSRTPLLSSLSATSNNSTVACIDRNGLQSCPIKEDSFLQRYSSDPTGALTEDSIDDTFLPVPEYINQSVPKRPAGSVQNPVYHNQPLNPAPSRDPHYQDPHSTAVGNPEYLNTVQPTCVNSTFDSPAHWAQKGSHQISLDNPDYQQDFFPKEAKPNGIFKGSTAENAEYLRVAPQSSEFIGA
Chain of βBTK Y223 (Ramos cells) (Q06187 whole entry): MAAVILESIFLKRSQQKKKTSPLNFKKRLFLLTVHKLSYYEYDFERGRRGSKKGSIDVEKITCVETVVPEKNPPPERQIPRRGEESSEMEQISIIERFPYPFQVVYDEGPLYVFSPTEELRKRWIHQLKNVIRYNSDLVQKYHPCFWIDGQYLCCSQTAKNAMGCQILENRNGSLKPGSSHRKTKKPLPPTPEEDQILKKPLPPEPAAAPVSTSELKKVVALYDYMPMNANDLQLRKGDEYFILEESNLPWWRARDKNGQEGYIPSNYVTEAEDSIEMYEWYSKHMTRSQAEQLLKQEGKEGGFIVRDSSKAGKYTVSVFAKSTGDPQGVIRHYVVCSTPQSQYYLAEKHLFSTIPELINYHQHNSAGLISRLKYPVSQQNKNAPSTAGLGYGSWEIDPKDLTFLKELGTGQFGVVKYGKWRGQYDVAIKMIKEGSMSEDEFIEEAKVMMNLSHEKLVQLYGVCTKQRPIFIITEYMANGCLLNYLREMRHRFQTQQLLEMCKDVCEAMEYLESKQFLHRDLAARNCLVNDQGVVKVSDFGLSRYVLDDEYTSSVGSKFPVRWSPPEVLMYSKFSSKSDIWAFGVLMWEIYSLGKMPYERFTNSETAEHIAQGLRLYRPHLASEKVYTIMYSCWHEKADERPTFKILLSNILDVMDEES
Chain of BTK WT (Q06187 whole entry): as above

Molecule `C=CC(=O)Nc1cccc(Nc2nc(Nc3ccc(OCCOC)cc3)c3c(c2F)C(C)(C)NC3=O)c1` [Compound G-5, N-(3-(7-fluoro-4-(4-(2-methoxyethoxy)phenylamino)-1,1-dimethyl-3-oxo-2,3-dihydro-1H-pyrrolo[3,4-c]pyridin-6-ylamino)phenyl)acrylamide] has an IC50 (BTK WT) of 156 nM.
`C=CC(=O)Nc1cccc(Nc2nc3c(c(Nc4ccccc4)n2)C(=O)NC3)c1` [Compound G-6, N-(3-(5-oxo-4-(phenylamino)-6,7-dihydro-5H-pyrrolo[3,4-d]pyrimidin-2-ylamino)phenyl)acrylamide] was tested, and the IC50 (BTK WT) was 14 nM, the IC50 (wild-type EGFR kinase) was 3000 nM and the IC50 (βBTK Y223 (Ramos cells)) was 20 nM.
In the case of `C=CC(=O)N(CC)c1cccc(Nc2nc3c(c(Nc4ccc(N5CCN(C6COC6)C[C@@H]5C)cc4)n2)C(=O)NC3)c1` [Compound G-16], the IC50 (BTK WT) is reported as 44 nM, the IC50 (wild-type EGFR kinase) is reported as 5680 nM and the IC50 (βBTK Y223 (Ramos cells)) is reported as 62 nM.
In the case of `C=CC(=O)Nc1cccc(Nc2nc3c(c(Nc4ccc(N5CCOCC5)cc4)n2)C(=O)NC3)c1` [Compound G-15], the IC50 (BTK WT) is reported as 52 nM, the IC50 (wild-type EGFR kinase) is reported as 4260 nM and the IC50 (βBTK Y223 (Ramos cells)) is reported as 36 nM.
Molecule `C=CC(=O)Nc1cccc(Nc2nc(Nc3ccc(OCCOC)cc3)c3c(c2F)C(C)NC3=O)c1` (stereo not drawn) [Compound G-1, N-(3-((7-fluoro-4-((4-(2-methoxyethoxy)phenyl)amino)-1-methyl-3-oxo-2,3-dihydro-1H-pyrrolo[3,4-C]pyridin-6-yl)amino)phenyl)acrylamide] has an IC50 (BTK WT) of 141 nM and an IC50 (wild-type EGFR kinase) of 9270 nM.
`C=CC(=O)Nc1cccc(Nc2nc3c(c(Nc4cnn(C)c4)n2)C(=O)NC3)c1` [Compound G-8, N-(3-(4-(1-methyl-1H-pyrazol-4-ylamino)-5-oxo-6,7-dihydro-5H-pyrrolo[3,4-d]pyrimidin-2-ylamino)phenyl)acrylamide] showed an IC50 (BTK WT) of 9 nM, an IC50 (wild-type EGFR kinase) of 6420 nM and an IC50 (βBTK Y223 (Ramos cells)) of 36 nM.
`C=CC(=O)Nc1cccc(Nc2nc3c(c(Oc4ccc(OCCOC)cc4)n2)C(=O)NC3)c1` [Compound G-12, N-(3-((4-(4-(2-methoxyethoxy)phenoxyl)-5-oxo-6,7-dihydro-5H-pyrrolo[3,4-d]pyrimidin-2-yl)amino)phenyl)acrylamide] was tested, and the IC50 (BTK WT) was 1350 nM, the “inhibitory activity against enzyme (BTK WT), in words” value (BTK WT) was “significantly reduced” and the IC50 (wild-type EGFR kinase) was 1530 nM.
Molecule `C=CC(=O)Nc1cccc(Nc2nc3c(c(Nc4cnn(C5CC5)c4)n2)C(=O)NC3)c1` [Compound G-13] has an IC50 (BTK WT) of 63 nM, an IC50 (wild-type EGFR kinase) of 3080 nM and an IC50 (βBTK Y223 (Ramos cells)) of 81 nM.
With `C=CC(=O)Nc1cccc(Nc2nc(Nc3ccc(OCCOC)cc3)c3c(c2F)CNC3=O)c1` [Compound G-3, N-(3-(7-fluoro-4-(4-(2-methoxyethoxy)phenylamino)-3-oxo-2,3-dihydro-1H-pyrrolo[3,4-c]pyridin-6-ylamino)phenyl)acrylamide] the IC50 (BTK WT) was 58 nM, the IC50 (wild-type EGFR kinase) was over 10000 nM and the IC50 (βBTK Y223 (Ramos cells)) was 106 nM.
`C=CC(=O)Nc1cccc(Nc2nc3c(c(Nc4cnn(CCOC)c4)n2)C(=O)NC3)c1` [Compound G-14] was tested, and the IC50 (BTK WT) was 59 nM, the IC50 (wild-type EGFR kinase) was 2690 nM and the IC50 (βBTK Y223 (Ramos cells)) was 103 nM.
Molecule `C=CC(=O)Nc1cccc(Nc2nc3c(c(Nc4ccc(OCCOC)cc4)n2)C(=O)NC3)c1` [Compound G-2, N-(3-(4-(4-(2-methoxyethoxy)phenylamino)-5-oxo-6.7-dihydro-5H-pyrrolo[3,4-d]pyrimidin-2-ylamino)phenyl)acrylamide] has an IC50 (BTK WT) of 25 nM, an IC50 (wild-type EGFR kinase) of 4690 nM and an IC50 (βBTK Y223 (Ramos cells)) of 43 nM.
For `C=CC(=O)Nc1cccc(Nc2nc3c(c(-c4cnn(C)c4)n2)C(=O)NC3)c1` [Compound G-11, N-(3-(4-(1-methyl-1H-pyrazol-4-yl)-5-oxo-6,7-dihydro-5H-pyrrolo[3,4-d]pyrimidin-2-ylamino)phenyl)acrylamide], the IC50 (BTK WT) was 48 nM, the IC50 (wild-type EGFR kinase) was over 10000 nM and the IC50 (βBTK Y223 (Ramos cells)) was 4 nM.
`C=CC(=O)Nc1cccc(Nc2nc3c(c(Nc4cnn(CC(C)(C)O)c4)n2)C(=O)NC3)c1` [Compound G-9, N-(3-(4-(1-(2-hydroxyl-2-methylpropyl)-1H-pyrazol-4-ylamino)-5-oxo-6,7-dihydro-5H-pyrrolo[3,4-d]pyrimidin-2-ylamino)phenyl)acrylamide] was tested, and the IC50 (BTK WT) was 55 nM, the IC50 (wild-type EGFR kinase) was 5030 nM and the IC50 (βBTK Y223 (Ramos cells)) was 82 nM.
Molecule `C=CC(=O)Nc1cccc(Nc2nc3c(c(Nc4cnn(C5CCOCC5)c4)n2)C(=O)NC3)c1` [Compound G-7, N-(3-(5-oxo-4-(1-(tetrahydro-2H-pyran-4-yl)-1H-pyrazol-4-ylamino)-6,7-dihydro-5H-pyrrolo[3,4d]pyrimidin-2-ylamino)phenyl)acrylamide] has an IC50 (BTK WT) of 19 nM, an IC50 (wild-type EGFR kinase) of 6990 nM and an IC50 (βBTK Y223 (Ramos cells)) of 111 nM.
In the case of `C=CC(=O)Nc1cccc(Nc2nc3c(c(N(C)c4ccc(OCCOC)cc4)n2)C(=O)NC3)c1` [Compound G-17], the IC50 (BTK WT) is reported as over 10000 nM, the “inhibitory activity against enzyme (BTK WT), in words” value (BTK WT) is reported as “significantly lowered” and the IC50 (wild-type EGFR kinase) is reported as over 10000 nM.
In the case of `C=CC(=O)Nc1cccc(Nc2cc3c(c(Nc4ccc(OCCOC)cc4)n2)C(=O)NC3)c1` [Compound G-10, N-(3-(4-(4-(2-methoxyethoxy)phenylamino)-3-oxo-2,3-dihydro-1H-pyrrolo[3,4-c]pyridin-6-ylamino)phenyl)acrylamide], the IC50 (BTK WT) is reported as 68 nM, the IC50 (wild-type EGFR kinase) is reported as over 10000 nM and the IC50 (βBTK Y223 (Ramos cells)) is reported as 164 nM.
Work on `C=CC(=O)Nc1cccc(Nc2nc(Nc3ccc(N4CCN(CC(C)O)CC4)cc3)c3c(c2F)CNC3=O)c1` (stereo not drawn) [Compound G-4, N-(3-(7-fluoro-4-(4-(4-(2-hydroxypropyl)piperazin-1-yl)phenylamino)-3-oxo-2,3-dihydro-1H-pyrrolo[3,4c]pyridin-6-ylamino)phenyl)acrylamide] yielded an IC50 (BTK WT) of 10 nM, an IC50 (wild-type EGFR kinase) of 3000 nM and an IC50 (βBTK Y223 (Ramos cells)) of 6 nM.
